The numbers were not newly measured in patent US20090062406A1, “Aqueous concentrates of isethionate, taurate and betaine” (Clariant International Ltd., priority 2007, published 2009), which cites them from elsewhere.

For this data set the following is noted: 20° C.

With sodium methyl cocoyl taurate, the Solubility in water was 10000 µg/mL.
